Where “and” joins values, the source holds several entries; their conditions need not be identical. Equal entries are not always repeated.
What was measured:
Format in all cases: functional, Homo sapiens
TERT-RPE1 = experiment: (§1) Here: values are normalized to the negative (DMSO; defined as 0% autophagy induction) and positive (250nM Torin1; mTOR inhibitor; defined as maximal inducer of autophagy = 100%) control compounds and represented as % of autophagy induction. […] The impact of autophagy induction on cells is complex and depends on the affected target. As such, the magnitude of a phenotype may not be equally mirrored in the %-value of autophagy induction and vice versa. The dynamics of the induction may indicate the mode of activation: e.g. activation via phosphorylation or a signaling cascade may occur fast, while activation via transcription factors may take considerably longer. […] Of note, treatment concentrations may be sub-optimal for specific compounds, leading to false negative annotations.; settings: Culturing Media DMEM/F12 (1:1), 1 % Penicillin/Streptomycin, 10% Fetal bovin serum Add-On: No, Screening Media Control DMEM/F12 (1:1), Screening Media Samples DMEM/F12 (1:1)
U2OS [1] = experiment: as §1; settings: Culturing Media DMEM, 1 % Penicillin/Streptomycin, 10% Fetal bovin serum Add-On: No, Screening Media Control DMEM, Screening Media Samples DMEM
U2OS [2] = experiment: as §1; settings: Culturing Media DMEM, 1 % Penicillin/Streptomycin, 10% Fetal bovin serum Add-On: No, Screening Media Control DMEM, Screening Media Samples DMEM; remark: listed apart in the source
[3] = Compound Concentration 0.5 uM, Timepoint 12 hours
[4] = Compound Concentration 0.5 uM, Timepoint 24 hours
[5] = Compound Concentration 0.5 uM, Timepoint 36 hours
[6] = Compound Concentration 0.5 uM, Timepoint 60 hours
[7] = Compound Concentration 2 uM, Timepoint 12 hours
[8] = Compound Concentration 2 uM, Timepoint 24 hours
[9] = Compound Concentration 2 uM, Timepoint 36 hours
[10] = Compound Concentration 2 uM, Timepoint 60 hours
[11] = Compound Concentration 10 uM, Timepoint 12 hours
[12] = Compound Concentration 10 uM, Timepoint 24 hours
[13] = Compound Concentration 10 uM, Timepoint 36 hours
[14] = Compound Concentration 10 uM, Timepoint 60 hours

SMILES | autophagy induction (U2OS [1]; [3]) [%] | autophagy induction (U2OS [1]; [4]) [%] | autophagy induction (U2OS [1]; [5]) [%] | autophagy induction (U2OS [1]; [6]) [%] | autophagy induction (U2OS [1]; [7]) [%] | autophagy induction (U2OS [1]; [8]) [%] | autophagy induction (U2OS [1]; [9]) [%] | autophagy induction (U2OS [1]; [10]) [%] | autophagy induction (U2OS [1]; [11]) [%] | autophagy induction (U2OS [1]; [12]) [%] | autophagy induction (U2OS [1]; [13]) [%] | autophagy induction (U2OS [1]; [14]) [%] | autophagy induction (U2OS [2]; [3]) [%] | autophagy induction (U2OS [2]; [4]) [%] | autophagy induction (U2OS [2]; [5]) [%] | autophagy induction (U2OS [2]; [6]) [%] | autophagy induction (U2OS [2]; [7]) [%] | autophagy induction (U2OS [2]; [8]) [%] | autophagy induction (U2OS [2]; [9]) [%] | autophagy induction (U2OS [2]; [10]) [%] | further results
CC1=C2C[C@H]3[C@@H](CC=C4C[C@@H](O)CC[C@@]43C)[C@@H]2CC[C@]12O[C@@H]1C[C@H](C)CN[C@H]1[C@H]2C [CYCLOPAMINE] | -10.7714 | -6.065 | -46.3072 | -1.6767 | -23.8167 | -9.227 | -62.0777 | -2.064 | -31.4833 | -9.078 | -61.7295 | -4.044 | -5.379 | -12.5809 | -11.7869 | -7.179 | -12.942 | -16.2845 | -11.3886 | -12.7281 | autophagy induction (TERT-RPE1; Compound Concentration 0.5 uM, Timepoint 12 hours, 12 h, 0.5 µM): -1.95% and 0.112%; autophagy induction (TERT-RPE1; Compound Concentration 0.5 uM, Timepoint 24 hours, 24 h, 0.5 µM): -5.579% and 2.177%; autophagy induction (TERT-RPE1; Compound Concentration 0.5 uM, Timepoint 36 hours, 36 h, 0.5 µM): -7.952% and 1.185%; autophagy induction (TERT-RPE1; Compound Concentration 0.5 uM, Timepoint 60 hours, 60 h, 0.5 µM): -10.1078% and 0.5911%; autophagy induction (TERT-RPE1; Compound Concentration 2 uM, Timepoint 12 hours, 12 h, 2 µM): -0.5068% and 11.5959%; autophagy induction (TERT-RPE1; Compound Concentration 2 uM, Timepoint 24 hours, 24 h, 2 µM): -0.6761% and 8.252%; autophagy induction (TERT-RPE1; Compound Concentration 2 uM, Timepoint 36 hours, 36 h, 2 µM): -1.445% and 8.279%; autophagy induction (TERT-RPE1; Compound Concentration 2 uM, Timepoint 60 hours, 60 h, 2 µM): -2.949% and 8.955%; autophagy induction (TERT-RPE1; Compound Concentration 10 uM, Timepoint 12 hours, 12 h, 10 µM): 18.7284% and 8.103%; autophagy induction (TERT-RPE1; Compound Concentration 10 uM, Timepoint 24 hours, 24 h, 10 µM): 21.8058% and 8.836%; autophagy induction (TERT-RPE1; Compound Concentration 10 uM, Timepoint 36 hours, 36 h, 10 µM): 27.6829% and 10.6231%; autophagy induction (TERT-RPE1; Compound Concentration 10 uM, Timepoint 60 hours, 60 h, 10 µM): 29.1115% and 13.2783%; autophagy induction (U2OS [2]; [11]): -9.168%; autophagy induction (U2OS [2]; [12]): -9.072%; autophagy induction (U2OS [2]; [13]): -3.104%; autophagy induction (U2OS [2]; [14]): 2.518%
O=C(O)C1CN(Cc2ccc(OCc3ccc(Cl)c(Cl)c3)cc2)C1 | -1.025 | -0.5625 | -1.224 | -0.01663 | 2.871 | 0.8864 | 0.6277 | 0.8248 | 1.474 | 3.015 | 1.861 | 1.49 | -6.393 | -7.561 | -8.567 | -6.096 | 2.736 | -0.6379 | 3.003 | 6.192 | autophagy induction (TERT-RPE1; [3]): -8.997%; autophagy induction (TERT-RPE1; [4]): -11.1742%; autophagy induction (TERT-RPE1; [5]): -13.4476%; autophagy induction (TERT-RPE1; [6]): -16.3767%; autophagy induction (TERT-RPE1; [7]): -4.026%; autophagy induction (TERT-RPE1; [8]): -8.149%; autophagy induction (TERT-RPE1; [9]): -12.0341%; autophagy induction (TERT-RPE1; [10]): -15.552%; autophagy induction (TERT-RPE1; [11]): -3.6803%; autophagy induction (TERT-RPE1; [12]): -2.7744%; autophagy induction (TERT-RPE1; [13]): -2.708%; autophagy induction (TERT-RPE1; [14]): -2.7926%; autophagy induction (U2OS [2]; [11]): 4.494%; autophagy induction (U2OS [2]; [12]): -1.815%; autophagy induction (U2OS [2]; [13]): -1.999%; autophagy induction (U2OS [2]; [14]): -2.676%

— ChEMBL document CHEMBL5724696, “Autophagy assay results for EUbOPEN Chemogenomics Library” (2024)
